Data on 16 compounds can be found in PubChem BioAssay (NCI).

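The compound was tested at five concentrations on cells cultured in 96-well plates, with a 48-hour exposure period. TGI marks complete inhibition of growth.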

Assay in all cases: inhibition of tumour cell growth, NCI panel, 48 h
For test [1], the system named is MALME-3M melanoma.
The subject of test [2] is OVCAR-8 ovarian.
In test [3] the test system is COLO 205 colon.
Test [4] concerns OVCAR-4 ovarian.
Test [5] deals with UACC-62 melanoma.
Test [6] relates to MDA-MB-231 breast.
In test [7] the test system is UACC-257 melanoma.
For test [8], the system named is K-562 leukemia.
Test [9] concerns HCC-2998 colon.
Test [10] deals with SK-OV-3 ovarian.
For test [11], the system named is SK-MEL-5 melanoma.
The subject of test [12] is SR leukemia.
For test [13], the system named is HT29 colon.
For test [14], the system named is NCI-H23 lung.
The test system of test [15] is IGROV1 ovarian.
Test [16] concerns EKVX NSCLC.
In test [17] the test system is 786-0 renal.
Test [18] has as its system KM12 colon.

Turning to `COc1cc2nc3n(c2cc1OC)C(O)c1c(Cl)nc(SC)nc1S3` (stereo unspecified), the TGI is 8.8 µM in test [1]; 7.06 µM in [2]; 22.9 µM in test [3]; greater than 39 µM in test [4]; 25.2 µM in [5]; greater than 81 µM in test [6]. The TGI in [7] was 52.5 µM; in test [8], greater than 100 µM; in test [9], 20.2 µM; in [10], 30.8 µM; in test [11], 8.94 µM; in test [12] it was greater than 100 µM. In addition, the TGI in test [13] is greater than 100 µM; in test [14], 18.3 µM; in [15], 13 µM; in test [16], 40.6 µM; in [17], 7.85 µM; in test [18], greater than 100 µM.

On to `C=CCOC(=O)Cn1cnc2c(N)ncnc21`, for which the TGI in test [1], in test [2], in [3], in test [4], in test [5] and in test [6] was greater than 100 µM in each case. Moreover, the TGI in test [7], in test [8], in test [9], in test [10], in [11] and in test [12] was greater than 100 µM in each case. In addition, the TGI in test [13], in [14], in test [15], in test [16], in test [17] and in test [18] was greater than 100 µM in each case.

`COc1ccc2c(c1)/C(=C/c1c(O)[nH]c(=S)[nH]c1=O)C=N2`: the TGI in test [1], in test [2], in test [3], in test [4], in [5] and in [6] was greater than 100 µM each time. The TGI in [7], in test [8], in test [9], in test [10], in [11] and in [12] was greater than 100 µM each time. The TGI in test [13], in [14], in [15], in [16], in test [17] and in test [18] was greater than 100 µM in each case.

On to `COc1cc2c(cc1OS(C)(=O)=O)N=C[C@@H]1CCCN1C2=O`, for which the TGI in [1], in test [2], in test [3], in test [4], in test [5] and in test [6] was greater than 100 µM in each case. The TGI in test [7], in [9], in [10], in test [11], in test [12] and in test [13] was greater than 100 µM in each case. Besides, the TGI in [14], in [15], in [16], in [17] and in test [18] was greater than 100 µM throughout.

Regarding `CC(NCc1c(O)ccc2c(-c3ccccc3)cc(=O)oc12)C(=O)O` (stereo unspecified), the TGI in [1], in test [2], in test [3], in test [4], in test [5] and in test [6] was greater than 100 µM each time. The TGI in test [7], in test [8], in [9], in test [10], in test [11] and in test [12] was greater than 100 µM each time. Moreover, the TGI in test [13], in test [14], in test [15], in [16], in test [17] and in test [18] was greater than 100 µM in each case.

Take `Cc1ccc(-c2n[nH]c(=O)n2/N=C\c2ccccc2O)cc1`: the TGI in [1], in test [2], in test [3], in test [4], in test [6] and in test [7] was greater than 100 µM in each case. In addition, the TGI in [8], in test [9], in [10], in test [11], in test [12] and in [13] was greater than 100 µM each time. Further, the TGI in [14], in test [15], in [16], in test [17] and in [18] was greater than 100 µM throughout.

On to `CCCc1nnc2sc(COc3ccc(OCc4nn5c(CCC)nnc5s4)c(Cl)c3)nn12`, for which the TGI in [1] is greater than 100 µM; in [2], greater than 100 µM; in test [3], greater than 100 µM; in test [4], 74.6 µM; in [5] it was 59.4 µM; in test [6], greater than 100 µM. Moreover, the TGI was 51.1 µM in test [7]; greater than 100 µM in [8]; 64.1 µM in test [9]; greater than 100 µM in [10]; 21.2 µM in [11]; 64.1 µM in [12]. The TGI is 98.9 µM in test [13]; greater than 100 µM in test [14]; greater than 100 µM in [15]; 48.1 µM in test [16]; greater than 100 µM in test [17]; greater than 100 µM in test [18].

Turning to `N#Cc1cc2c(cc1C#N)SCCSCCCSCCS2`, the TGI was greater than 65.1 µM in test [1]; 31.8 µM in test [2]; greater than 100 µM in [3]; greater than 100 µM in [4]; 27.6 µM in test [5]; 29 µM in test [6]. Moreover, the TGI in test [7] is greater than 100 µM; in test [8], greater than 100 µM; in [9] it was greater than 100 µM; in test [10], 45.4 µM; in test [11], greater than 100 µM; in test [12], greater than 70.3 µM. Further, the TGI is greater than 100 µM in test [13]; 38.3 µM in test [14]; 97.8 µM in test [15]; greater than 100 µM in [16]; 19 µM in test [17]; greater than 100 µM in test [18].

For the compound `CC1=C(O)C(=O)C=C2C1=CC=C1[C@@]2(C)CC[C@@]2(C)C3C[C@@H](C)C(=O)[C@@H](O)[C@]3(C)CC[C@]12C` (stereo partly specified), the TGI in test [1] is 3.97 µM; in test [2], 5.47 µM; in test [3] it was 3.05 µM; in [4], 11 µM; in [5], 3.28 µM; in test [6], 3.75 µM. The TGI was determined as 7.46 µM in [7]; 5.17 µM in test [8]; 9.65 µM in [9]; 22.2 µM in test [10]; 12.7 µM in [11]; 1.3 µM in test [12]. Also, the TGI in test [13] amounted to 3.79 µM; in test [14], 3.6 µM; in test [15], 3.28 µM; in test [16], 4.12 µM; in test [17], 2.36 µM; in test [18] it was 19.6 µM.

On to `CCCCNC(=O)OCCN=c1c2ccccc2ccc2ccccc12`, for which the TGI in test [1], in test [2], in test [3], in [4], in [5] and in test [6] was greater than 100 µM throughout. For the same compound, the TGI in test [7], in test [8], in test [9], in test [10], in test [11] and in [12] was greater than 100 µM throughout. Further, the TGI in test [13], in [14], in [15], in test [16], in test [17] and in [18] was greater than 100 µM each time.

For `COC(=O)c1c(O)c(C#N)c2[nH]c3ccccc3n2c1=O`, the TGI in [1], in test [2], in test [3], in test [4], in test [5] and in [6] was greater than 100 µM in each case. Also, the TGI in test [7], in [8], in test [9], in test [10], in [11] and in test [12] was greater than 100 µM each time. The TGI in test [13], in test [14], in [15], in [16], in test [17] and in test [18] was greater than 100 µM throughout.

Take `CN1CCN(c2cc3[nH]c4cc(O)cc(O)c4c(=O)c3cc2N)CC1`: the TGI in test [1] was 67.4 µM; in test [2], greater than 100 µM; in test [3], 32 µM; in test [4], 69.5 µM; in test [5] it was 2.91 µM; in [6], 3.32 µM. In addition, the TGI in test [7] is greater than 100 µM; in test [8], 36.1 µM; in test [9], 45.7 µM; in [11], 50.1 µM; in [12], 21 µM; in [13], 63.6 µM. The TGI in test [14] was greater than 100 µM; in test [15], 72.5 µM; in [16], 87.9 µM; in test [17], greater than 100 µM; in [18], 71.7 µM.

Take `CCC(C)N1CN(c2ccccc2)C2(CCN(CC3COc4ccccc4O3)CC2)C1=O` (stereo unspecified): the TGI was 34.6 µM in test [1]; 67.9 µM in test [2]; 47.7 µM in test [3]; 49.8 µM in test [5]; greater than 100 µM in test [6]; 65.9 µM in test [7]. Besides, the TGI in [8] was 46.9 µM; in test [9] it was 38.8 µM; in test [10] it was greater than 100 µM; in [11], 28.9 µM; in test [12] it was 76 µM; in test [13] it was 40.3 µM. Besides, the TGI is 73.1 µM in test [14]; greater than 100 µM in [15]; 64.1 µM in [16]; 35.5 µM in [17]; 43.9 µM in test [18].

With `Cc1nc2ccc(F)cc2c2c1CCS2`, the TGI was greater than 100 µM in [1]; greater than 100 µM in test [2]; greater than 100 µM in [3]; greater than 100 µM in [4]; greater than 100 µM in test [5]; 86.9 µM in test [6]. For the same compound, the TGI was greater than 100 µM in [7]; 94.5 µM in test [8]; greater than 100 µM in test [9]; greater than 100 µM in [11]; greater than 100 µM in [12]; greater than 100 µM in test [13]. In addition, the TGI in test [14], in test [15], in [16], in [17] and in [18] was greater than 100 µM in each case.

Consider `CCCN(CCC)C(=S)Sc1nc(C)nc(N2CCN(c3nc(C)nc(SC(=S)N(CCC)CCC)c3[N+](=O)[O-])CC2)c1[N+](=O)[O-]`, for which the TGI in [1] was 45.6 µM; in test [2], greater than 100 µM; in test [3] it was 19 µM; in test [4] it was 76.5 µM; in test [5] it was 60.3 µM; in test [6], 20.3 µM. Further, the TGI in test [7] is 54.2 µM; in test [9], 43.6 µM; in [10] it was greater than 100 µM; in test [11] it was 28.2 µM; in test [12] it was greater than 81.9 µM; in test [13], 21.7 µM. The TGI was 36.8 µM in [14]; 41 µM in [15]; greater than 83 µM in test [16]; greater than 53 µM in test [17]; 33.4 µM in test [18].

On to `COc1cccc(OC)c1C1ON=C(c2ccccc2)N1C12CC3CC(CC(C3)C1)C2` (stereo unspecified), for which the TGI in test [1], in [2], in [3], in [5], in test [6] and in test [7] was greater than 100 µM throughout. For the same compound, the TGI in test [8], in test [9], in test [10], in test [11], in test [12] and in [13] was greater than 100 µM throughout. Further, the TGI in test [14], in test [15], in test [16], in test [17] and in test [18] was greater than 100 µM each time.
